Where “and” joins values, the source holds several entries; their conditions need not be identical. Identical values can stand only once.
Key:
[1] = tested on: ischemia/reperfusion damaged rat; assay: Therapeutic administration, ischemia/reperfusion (LAD ligation) rat model; format: in vivo, SD rat; settings: therapeutic i.v. 5 minutes after ligation; for CK / LDH / MDA / SOD: rat serum
Protocol: (§1) Intraperitoneal injecting 6% Urethane with 20 ml/kg to anaesthetize the animal, fixing the animal on operating table in supine position; being connected with the electrocardiograph to detect the limb II lead electrocardiogram, tracheal intubating and connecting the animal with respirators, taking continuous positive end-expiratory pressure with tidal volume of 6 ml/200 g, frequency of 55/min and breathing ratio of 2:1. Carrying out thoracotomy on the gap between the forth and the fifth ribs of the left border of sternum, separating the ribs and removing the pericardium. Ligating at the left anterior descending coronary artery by using 6/0 silk suture by the sign of left auricle lower margin, and setting a piece of polyethylene pipe with diameter of 1 mm between the ligation silk suture and blood vessel. Ligating the silk suture to press the left anterior descending coronary artery by the polyethylene pipe and cause myocardial ischemia. Taking part of myocardium becoming grey and electrocardiogram S-T segment raising as the sign of that the left anterior descending coronary artery is ligated successfully. Taking out the polyethylene pipe carefully to cause the reperfusion. Verifying the success of reoxygenation by reactive hyperemia of ischemia area and the descending of the raised S-T segment by ½. Reoxygenation for 30 minutes, then sampling blood from abdominal aorta to prepare serum which is used to measure the biochemical index (measuring the content of CK, LDH, MDA, SPD according to the Reagent kits Instruction).
(§2) Rat's heart was taken and after being blooded, the residual blood in the ventricle was cleaned by normal saline to weight the weight of whole heart. Fat was removed, the heart was crosscut into 4˜5 pieces and was put into a tube, to be carried out NBT dye at 37° C. (dying the normal tissue rather than the ischemic tissue), taking photographs. The ischemic area of the myocardium was cut to take a weighing, and then the myocardial infarct size (MIS) was calculated by the ratio of weight of the ischemic area of the myocardium to whole heart weight, which was present by percentage.
The drug was intravenously injured on the tail 5 minutes after ligation of LAD, then reperfusion was carried out for 30 min 30 minutes after ligation of LAD. Heart was taken after sampling blood from abdominal aorta. The biochemical index and the myocardial infarction size were measure by using the above method.

[2] = tested on: vitro cultured myocardium poisoned by adriamycin; assay: Activity detection experiment of cultivation of myocardium cell (MTT); format: cell-based; settings: mitochondria dehydrogenase activity of adriamycin-damaged myocardium, listed as peptide
Description: “Activity detection experiment of cultivation of myocardium cell” provided by DaLian Zhen-Ao Pharmaceutical CO., LTD is adopted in the activity detection. The experiment is based on test of vitro cultured myocardium poisoned by adriamycin, wherein, […] (MTT) is used as reaction indicator to observe the enhancement of the activity of mitochondria dehydrogenase of the damaged myocardium conducted by cardio myopeptidin, to determine the protective effect of myocardium.

[3] = tested on: ischemia/reperfusion damaged rat; assay: Preventive administration, ischemia/reperfusion (LAD ligation) rat model; format: in vivo, SD rat; settings: preventive i.v. 30 min before ligation; for MIS (myocardial infarct size): ischemic area weight/whole heart weight; for CK / LDH / MDA / SOD: rat serum
Protocol: 70 SD rats (250˜300 g per rat) were taken, wherein, 60 rats were divided into 6 groups evenly and randomly according to weight, every 10 of each group, the remains are kept for replacement of dead animals of each group.
Normal Control Group: carrying out sham operation, threading a silk suture through the left anterior descending coronary artery (LAD) without ligation;
Model Group: intravenous injecting saline solution of 5 ml/kg 30 minutes before ligation, and the preparation of hypoxia/reoxygenation model is the same as Normal Control Group;
Positive Control Group: intravenous injecting Verapamil of 1 ml/kg 30 min before ligation, preparation of the hypoxia/reoxygenation model is the same as Normal Control Group. […]
Preparation of the Model:
as §1, §2

[4] = tested on: primary culture myocardium cell damaged by adriamycin; assay: Effect of CMPC against adriamycin injury of primary culture myocardium cell (MTT); format: cell-based, Neonatal SD rat
Protocol: Remove the fibroblast through differential adhesion and chemistry method, and inoculate myocardium cell on the 96-well plates.
2.1.2 The Against Function of Cmpc to Injury of Adriamycin to Primary Culture Myocardium Cell.
Cell culture method is the same as 2.1.1
Preparation of model: Blank Control Group: cultivating myocardium cell with DMEM-H-15;
Model Group: adding 1 mg/L adriamycin, washing the plate with DMEM-H-15 two times after being cultivated for 1 h, adding DMEM-H-15 for cultivation;
Protective rate=(Ax−Amodel)/(Acontrol−Amodel)×100%;
(Ax, Amode, Acontrol respectively represent Absorbance value of Drug administration groups, Model Group and Blank control group.

“KGAWSNVLRGMGGAF [CMPC, Lys-Gly-Ala-Trp-Ser-Asn-Val-Leu-Arg-Gly-Met-Gly-Gly-Ala-Phe]” was tested, and the CK ([1]; Dosage 0.2 mg/kg) was 2.026 ± 0.532 U/ml, the LDH ([1]; Dosage 0.2 mg/kg) was 7763.83 ± 770.70 U/L and the MDA ([1]; Dosage 0.2 mg/kg) was 4.878 ± 0.430 nmol/mL. It also gave an SOD ([1]; Dosage 0.2 mg/kg) of 140.59 ± 20.28 U/ml, a CK ([1]; Dosage 0.6 mg/kg) of 1.748 ± 0.573 U/ml and an LDH ([1]; Dosage 0.6 mg/kg) of 7034.59 ± 1167.17 U/L. The MDA ([1]; Dosage 0.6 mg/kg) was 4.862 ± 0.468 nmol/mL, the SOD ([1]; Dosage 0.6 mg/kg) was 145.41 ± 10.56 U/ml and the CK ([1]; Dosage 1.8 mg/kg) was 1.707 ± 0.332 U/ml. It also gave an LDH ([1]; Dosage 1.8 mg/kg) of 7233.69 ± 297.69 U/L, an MDA ([1]; Dosage 1.8 mg/kg) of 4.685 ± 0.714 nmol/mL and an SOD ([1]; Dosage 1.8 mg/kg) of 143.41 ± 12.14 U/ml. For the same sequence, the “MIS (myocardial infarct size)” value ([1]; Dosage 0.2 mg/kg) was 3.95 ± 0.97 %, the “MIS (myocardial infarct size)” value ([1]; Dosage 0.6 mg/kg) was 4.20 ± 0.78 % and the “MIS (myocardial infarct size)” value ([1]; Dosage 1.8 mg/kg) was 3.68 ± 1.39 %. For the same sequence, the Activity value [2] was 2.3570 and 2.7328 and 2.564, the “MIS (myocardial infarct size)” value ([3]; Dosage 0.2 mg/kg) was 4.67 ± 0.74 % and the “MIS (myocardial infarct size)” value ([3]; Dosage 0.6 mg/kg) was 4.17 ± 0.62 %. The “MIS (myocardial infarct size)” value ([3]; Dosage 1.8 mg/kg) was 3.47 ± 1.08 %, the CK ([3]; Dosage 0.2 mg/kg) was 2.238 ± 0.274 U/ml and the LDH ([3]; Dosage 0.2 mg/kg) was 7555.34 ± 600.16 U/L. For the same sequence, the MDA ([3]; Dosage 0.2 mg/kg) was 4.642 ± 0.978 nmol/mL, the SOD ([3]; Dosage 0.2 mg/kg) was 134.85 ± 12.55 U/ml and the CK ([3]; Dosage 0.6 mg/kg) was 2.172 ± 0.329 U/ml. For the same sequence, the LDH ([3]; Dosage 0.6 mg/kg) was 7531.58 ± 414.64 U/L, the MDA ([3]; Dosage 0.6 mg/kg) was 4.847 ± 0.570 nmol/mL and the SOD ([3]; Dosage 0.6 mg/kg) was 130.43 ± 10.55 U/ml. It also gave a CK ([3]; Dosage 1.8 mg/kg) of 2.045 ± 0.358 U/ml, an LDH ([3]; Dosage 1.8 mg/kg) of 7453.80 ± 366.11 U/L and an MDA ([3]; Dosage 1.8 mg/kg) of 4.371 ± 0.47 nmol/mL. For the same sequence, the SOD ([3]; Dosage 1.8 mg/kg) was 135.67 ± 8.64 U/ml, the “% (protective rate)” value ([4]; Plate 1, Dosage 0.0032 mg/L) was 2.01% and the A540 ([4]; Plate 1, Dosage 0.0032 mg/L) was 0.662 ± 0.036. For the same sequence, the “% (protective rate)” value ([4]; Plate 1, Dosage 0.016 mg/L) was 33.08%, the A540 ([4]; Plate 1, Dosage 0.016 mg/L) was 0.695 ± 0.039 and the “% (protective rate)” value ([4]; Plate 1, Dosage 0.08 mg/L) was 40.49%. The A540 ([4]; Plate 1, Dosage 0.08 mg/L) was 0.703 ± 0.012, the “% (protective rate)” value ([4]; Plate 1, Dosage 0.4 mg/L) was 58.27% and the A540 ([4]; Plate 1, Dosage 0.4 mg/L) was 0.723 ± 0.018. The “% (protective rate)” value ([4]; Plate 1, Dosage 2 mg/L) was 27.98%, the A540 ([4]; Plate 1, Dosage 2 mg/L) was 0.690 ± 0.025 and the “% (protective rate)” value ([4]; Plate 1, Dosage 10 mg/L) was 4.79%. The A540 ([4]; Plate 1, Dosage 10 mg/L) was 0.665 ± 0.032, the “% (protective rate)” value ([4]; Plate 1, Dosage 50 mg/L) was 2.47% and the A540 ([4]; Plate 1, Dosage 50 mg/L) was 0.662 ± 0.031. For the same sequence, the “% (protective rate)” value ([4]; Plate 2, Dosage 0.0032 mg/L) was 36.17%, the A540 ([4]; Plate 2, Dosage 0.0032 mg/L) was 0.755 ± 0.033 and the “% (protective rate)” value ([4]; Plate 2, Dosage 0.016 mg/L) was 35.55%. The A540 ([4]; Plate 2, Dosage 0.016 mg/L) was 0.755 ± 0.024, the “% (protective rate)” value ([4]; Plate 2, Dosage 0.08 mg/L) was 49.30% and the A540 ([4]; Plate 2, Dosage 0.08 mg/L) was 0.769 ± 0.055. The “% (protective rate)” value ([4]; Plate 2, Dosage 0.4 mg/L) was 56.11%, the A540 ([4]; Plate 2, Dosage 0.4 mg/L) was 0.777 ± 0.057 and the “% (protective rate)” value ([4]; Plate 2, Dosage 2 mg/L) was 33.85%. For the same sequence, the A540 ([4]; Plate 2, Dosage 2 mg/L) was 0.753 ± 0.065, the “% (protective rate)” value ([4]; Plate 2, Dosage 10 mg/L) was 33.54% and the A540 ([4]; Plate 2, Dosage 10 mg/L) was 0.752 ± 0.039. The “% (protective rate)” value ([4]; Plate 2, Dosage 50 mg/L) was 33.08%, the A540 ([4]; Plate 2, Dosage 50 mg/L) was 0.752 ± 0.036 and the “% (protective rate)” value ([4]; Plate 3, Dosage 0.016 mg/L) was 55.92%. For the same sequence, the A540 ([4]; Plate 3, Dosage 0.016 mg/L) was 0.810 ± 0.020, the “% (protective rate)” value ([4]; Plate 3, Dosage 0.08 mg/L) was 60.35% and the A540 ([4]; Plate 3, Dosage 0.08 mg/L) was 0.819 ± 0.016. The “% (protective rate)” value ([4]; Plate 3, Dosage 0.4 mg/L) was 42.34%, the A540 ([4]; Plate 3, Dosage 0.4 mg/L) was 0.781 ± 0.050 and the “% (protective rate)” value ([4]; Plate 3, Dosage 2 mg/L) was 39.42%. The A540 ([4]; Plate 3, Dosage 2 mg/L) was 0.775 ± 0.008, the “% (protective rate)” value ([4]; Plate 3, Dosage 10 mg/L) was 36.41% and the A540 ([4]; Plate 3, Dosage 10 mg/L) was 0.768 ± 0.057. The “% (protective rate)” value ([4]; Plate 3, Dosage 50 mg/L) was 30.49% and the A540 ([4]; Plate 3, Dosage 50 mg/L) was 0.756 ± 0.014.
